Reference: patent publication US9375436B2, “Androgen treatment in females” (priority 2004, dated 2016)
Several values for one entry are separate records, joined by “and”; a condition that tells them apart may be missing. Identical values can stand only once.

Key:
[1] = Level of unconjugated DHEA under routine treatment protocol; format: in vivo, human; settings: 25 mg micronized pharmaceutical grade DHEA TID
Procedure: Routine treatment protocol involves administering about 25 mg of micronized, pharmaceutical grade DHEA, TID, to a human to uniformly raise levels of unconjugated DHEA above 350 ng/dl and, therefore, raise baseline testosterone. In six pregnancies spontaneously conceived, the distribution between female and male offspring was equal, at three and three, respectively. In contrast, in the remaining 15 offspring, which were products of pregnancies achieved through IVF, the distribution was 12 males and 3 females (p=0.035). Amongst women undergoing IVF and PGD, 53 embryos were analyzed from 17 IVF cycles, all having undergone ICSI.
(§1) The treatment protocol for long-term supplementation with DHEA that may improve oocyte and embryo quantity, quality, pregnancy rates and time to conception in women with diminished ovarian reserve, involves 25 mg of micronized, pharmaceutical grade DHEA, TID will usually uniformly raise levels of unconjugated DHEA above about 350 ng/dl, and, therefore, raise baseline testosterone. Estradiol baseline levels may also be raised.

DOR patients = assay: Pregnancy outcome at various AMH levels under DHEA supplementation; format: in vivo, human
Source text: Another study from our center further supports these conclusions (FIG. 22). FIG. 22 is a graph showing spontaneous pregnancy loss in spontaneous and IVF pregnancies at various AMH levels. The figure depicts at various AMH levels in the left column IVF pregnancies (IVF), as previously reported (26), and in the right column spontaneously conceived pregnancies (SP). Each column represents 100% of all pregnancies established, separated for live births (black section), voluntary termination of pregnancy (TOP; usually for aneuploidy) and spontaneous miscarriages (SAB).
In that study (FIG. 22), we investigated live birth rates after IVF at extremely low anti-Müllerian hormone (AMH) levels and were surprised how low miscarriage rates were between non-detectable levels of AMH and 0.4 ng/mL. Losses then increased between AMH 0.41-1.05 ng/mL to over 50 percent, the expected rate in DOR patients, only to fall, once again, to very low levels above AMH 1.05 ng/mL. […]
AMH<1.05 ng/mL represents more severe DOR. […] Chances of clinical pregnancies, miscarriages, terminations of pregnancy, and viable deliveries were then determined among severe DOR patients, depending on AMH levels (below detection, <0.1 ng/mL, 0.1-0.4 ng/mL, 0.41-0.8 ng/mL, 0.81-1.05 ng/mL) and with milder DOR (>1.06 ng/mL). […]

[2] = test system: patients with prior clomiphene citrate failures; assay: Toronto insemination cycles after DHEA (reported study); format: in vivo, human; settings: DHEA pregnancies, insemination cycles with clomiphene citrate/letrozole and FSH
Procedure: In cooperation with Robert F Casper's group at Toronto's Mount Sinai Hospital, they recently reported on 47 patients with prior clomiphene citrate failures who were supplemented with 75 mg daily of DHEA for at least 60 days prior to inseminations, with stimulation by either clomiphene citrate or letrozole in combination with FSH. Controls were 46 women, matched by age and baseline FSH without DHEA supplementation.
The possibility of synergistic gonadotropin and DHEA effects is supported by reanalysis of the Toronto groups' previously noted insemination cycles, stimulated with a clomiphene citrate/letrozole and FSH protocols. […] Final conclusions await, however, further investigations.

[3] = test system: patients with evidence of decreased ovarian reserve; assay: IVF cycles before and after DHEA treatment (Example 2); format: in vivo, human
Procedure: Cumulative embryo score is determined by scoring day 3 embryos and multiplying the number of cells in the embryo by the embryo grade. Embryo grade is a judgment of the embryologist on embryo quality from 1 to 5. Most good embryos are scored 4, with 5 reserved for exceptional embryos. The grade is based on the uniformity of the cells, the color and consistency of the cytoplasm, and the amount of fragmentation. Normal embryos are less than 5% fragmented. A person with three eight cell embryos each with a grade of four would have a cumulative embryos score of 96, the product of 3×8×4.
In another study, thirty (30) patients with evidence of decreased ovarian reserve were given supplemental DHEA 25 mg three times a day, for a total of 75 mg per day, for an average of about 4 months before beginning ovulation induction for IVF. Twelve patients contributed data from cycles both pre-DHEA and post-DHEA, eleven patients contributed data from cycles only pre-DHEA, and seven patients contributed data from cycles only post-DHEA. Patients' response to ovulation induction before DHEA treatment was compared to patients' response to ovulation induction after DHEA treatment with regard to peak estradiol, oocyte production, and embryos transferred and embryo quality.

[4] = test system: women with diminished ovarian reserve; assay: Gender of offspring and embryos conceived on DHEA treatment (Example 6); format: in vivo, human
Procedure: as §1
A total of 19 pregnancies were recorded with 16 singleton and 3 twin pregnancies. The medical records of all 19 women were reviewed in order to determine whether they conceived spontaneously, defined as including pregnancies conceived with intrauterine inseminations, or by IVF. If conception had occurred by IVF, it was recorded whether fertilization was spontaneous or by intracytoplasmic sperm injection (ICSI).
As a control group, seven women were selected who had undergone one IVF cycle with preimplantation genetic diagnosis (PGD), while for at least 60 days on DHEA supplementation, but had not conceived. The PGD data, defining each embryo's gender, were recorded. Statistics were performed using a binomial runs test, comparing seen distributions with an expected distribution of 50 percent, with p≦0.05 defining significance.

[5] = test system: person with evidence of decreased ovarian reserve; settings: human, in vivo
[6] = Post DHEA, 19 cycles, 16.1 ± 2.4 weeks of DHEA 75 mg per day
[7] = 15 offspring of pregnancies achieved through IVF
[8] = 53 embryos from 17 IVF cycles, women on DHEA, all ICSI
[9] = sixteen singleton pregnancies conceived on DHEA for at least 60 days

C[C@]12CC[C@H](O)CC1=CC[C@@H]1[C@@H]2CC[C@]2(C)C(=O)CC[C@@H]12 [DHEA, Dehydroepiandrosterone]
levels of unconjugated DHEA [1]: above 350 ng/dl | chance of live birth per treatment cycle (DOR patients; DOR patients under DHEA supplementation, up to AMH 1.05 ng/mL): approximately 5% | pregnancy chance per IVF cycle (DOR patients; under DHEA supplementation, absence of detectable AMH): ~5% | miscarriage rate (calculated on reanalysis) [2]: 28.5% | patients with continuing pregnancies ([3]; 5 of 45 patients): 11% | patients using DHEA who have conceived ([3]; 7 of 45 patients): 16% | mean increase in the number of fertilized oocytes (paired comparisons) ([3]; 12 patients): 1.42±0.63 | Average Day 3 embryo cell count ([3]; Post DHEA, 19 cycles): 4.5 ± 0.5 | Average Day 3 embryo grade ([3]; Post DHEA, 19 cycles): 2.8 ± 0.3 | Fertilized eggs ([3]; Post DHEA, 19 cycles): 4.6 ± 0.8 | Number of Day 3 embryos ([3]; Post DHEA, 19 cycles): 3.2 ± 0.6 | Oocytes ([3]; Post DHEA, 19 cycles): 5.8 ± 1.0 | Peak Estradiol ([3]; Post DHEA, 19 cycles): 1192 ± 904 | Transferred embryos ([3]; Post DHEA, 19 cycles): 2.6 ± 0.4 | Cancellation [3, 6]: 5% | Cancellation (cycles cancelled / cycles) [3, 6]: 1 of 19 and 1/19 | Positive hCG (per transfer cycle) ([3]; Post DHEA, cycles after an average of 4 months of DHEA treatment): 4/18 | increase in cumulative embryo score ([3]; after versus prior to DHEA use): about 64 | improved overall embryo score, model adjusted for oocyte number ([3]; post versus pre DHEA): 32.8 | increased fertilization, model adjusted for oocyte number ([3]; post versus pre DHEA): 1.93 fertilized oocytes | increased numbers of day-three embryos, model adjusted for oocyte number ([3]; post versus pre DHEA): 1.36 embryos | female offspring [4, 7]: 3 | male offspring [4, 7]: 12 | female embryos by PGD [4, 8]: 26 | male embryos by PGD [4, 8]: 27 | female offspring, final gender distribution ([4]; singletons plus twins): 6 | male offspring, final gender distribution ([4]; singletons plus twins): 15 | female offspring [4, 9]: 5 | male offspring [4, 9]: 11 | (log) peak E2 increase [5]: 0.47±0.06 | aneuploid embryos amongst 10 embryos (PGD) [5]: nine | average embryo cell count [5]: 6.83±1.37 and 7.2±1.15 | cryopreservable embryo yield increase [5]: 1.4±0.14 embryos per cycle | cryopreservable embryos [5]: 11 | embryo morphology [5]: 3.6±0.5 and 3.7±0.5 | embryos in a cycle [5]: 9 and 10 and 11 | embryos of high enough quality to undergo cryopreservation [5]: 49 | embryos produced [5]: 16 | oocyte yield increase [5]: 2.5±0.34 oocytes per cycle | oocytes in a cycle [5]: 13 and 16 and 19 | oocytes retrieved [5]: 17 | total viable embryos cryopreserved [5]: 50 | oocytes produced ([5]; po): 19
